Consider eight compounds from patent US8283353B2, “Fused ring compound and use thereof” (Takeda Pharmaceutical Company Limited, priority 2009, dated 2012).

Experiment [1] has as its target T1, human AT1 receptor (Homo sapiens, UniProt P30556).
T1 construct: expressed in transfected cells; membrane fraction
T1 sequence (P30556 1-359): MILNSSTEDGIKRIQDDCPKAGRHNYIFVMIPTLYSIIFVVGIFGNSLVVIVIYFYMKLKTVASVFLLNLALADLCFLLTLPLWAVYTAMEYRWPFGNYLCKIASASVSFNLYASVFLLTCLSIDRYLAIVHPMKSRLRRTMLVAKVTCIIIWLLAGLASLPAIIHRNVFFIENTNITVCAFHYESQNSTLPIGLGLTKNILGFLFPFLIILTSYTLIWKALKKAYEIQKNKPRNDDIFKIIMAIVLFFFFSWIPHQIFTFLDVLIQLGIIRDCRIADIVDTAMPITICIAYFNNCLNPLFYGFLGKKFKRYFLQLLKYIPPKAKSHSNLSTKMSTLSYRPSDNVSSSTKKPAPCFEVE
Put plainly: AT1 receptor antagonistic activity: [125I]-angiotensin II binding assay on human AT1 receptor-expressing CHO-K1 cellular membrane fraction. The note with it: 22.5 pM [125I]-angiotensin II, 1 hr room temperature. In outline: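 Competition binding used radiolabelled angiotensin II on stably transfected CHO-K1 membrane fractions in Tris pH 7.4/MgCl2 buffer, optionally containing 0.3 mg/mL fatty acid-free BSA, 1 hr at room temperature. Filtration onto GF/C separated bound tracer, and nonspecific binding was measured with candesartan.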

The target of experiment [2] is T2, human PPARγ (Homo sapiens, UniProt P37231).
T2 construct: expressed in transfected cells
T2 sequence (P37231 1-477 isoform P37231-2): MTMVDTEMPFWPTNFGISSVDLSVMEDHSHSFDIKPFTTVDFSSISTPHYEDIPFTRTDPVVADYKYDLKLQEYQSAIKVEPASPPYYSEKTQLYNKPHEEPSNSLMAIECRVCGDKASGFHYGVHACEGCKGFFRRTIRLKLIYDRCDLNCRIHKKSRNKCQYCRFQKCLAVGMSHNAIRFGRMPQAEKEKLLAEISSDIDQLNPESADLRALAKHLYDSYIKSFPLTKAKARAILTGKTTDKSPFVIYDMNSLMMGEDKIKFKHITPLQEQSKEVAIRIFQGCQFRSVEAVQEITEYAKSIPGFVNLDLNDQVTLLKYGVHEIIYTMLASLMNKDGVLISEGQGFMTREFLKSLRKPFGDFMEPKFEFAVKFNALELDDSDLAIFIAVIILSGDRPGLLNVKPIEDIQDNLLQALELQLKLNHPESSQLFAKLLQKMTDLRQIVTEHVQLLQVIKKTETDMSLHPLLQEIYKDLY
T2 sequence (P19793 1-462 partner): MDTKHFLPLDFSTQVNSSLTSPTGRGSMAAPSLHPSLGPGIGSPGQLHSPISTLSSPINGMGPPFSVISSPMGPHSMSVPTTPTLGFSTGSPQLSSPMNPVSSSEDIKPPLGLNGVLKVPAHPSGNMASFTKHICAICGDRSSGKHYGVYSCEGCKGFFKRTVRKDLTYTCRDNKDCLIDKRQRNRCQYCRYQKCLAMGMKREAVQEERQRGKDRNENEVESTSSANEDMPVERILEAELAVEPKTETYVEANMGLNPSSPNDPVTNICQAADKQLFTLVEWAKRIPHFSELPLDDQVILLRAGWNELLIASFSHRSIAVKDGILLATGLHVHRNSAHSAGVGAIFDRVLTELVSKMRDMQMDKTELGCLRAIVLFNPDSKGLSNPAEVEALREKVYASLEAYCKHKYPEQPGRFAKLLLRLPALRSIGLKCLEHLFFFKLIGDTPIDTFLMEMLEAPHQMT
Description: PPARγ agonistic activity: luciferase reporter assay in PPARγ:RXRα:4ERPP/CHO-K1 cells. Format: cell-based. The note with it: CHO-K1, test compound 10^−6 M; luciferase activity of control compound X (1 μM) = 100%, non-administration group = 0%. In outline:
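CHO-K1 cells stably carrying hPPARγ/RXRα and a 4ERPP luciferase reporter, dosed with test compound for 1 day at 37 °C in Ham's F12 with 0.1% fatty acid-free BSA. Luciferase read by luminescence; activity given as % of 1 μM control compound X (100%) versus untreated (0%).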

The term IC50 denotes the midpoint of a concentration-inhibition curve. Lower therefore signals greater potency. Regarding `CCCc1c(Cc2ccc(-c3ccccc3-c3noc(=O)[nH]3)cc2)c(=O)n([C@H]2CC[C@@]3(CC2)CC(C)=NO3)c2ncnn12` [Example 205, 4-[(5S,8S)-3-methyl-1-oxa-2-azaspiro[4.5]dec-2-en-8-yl]-6-{[2′-(5-oxo-4,5-dihydro-1,2,4-oxadiazol-3-yl)biphenyl-4-yl]methyl}-7-propyl[1,2,4]triazolo[1,5-a]pyrimidin-5(4H)-one], in experiment [1], the concentration for half-maximal inhibition (IC50) is 2.7 nM. In experiment [2], this compound yielded an activation at 1 µM of 27%.
For `CCCCc1c(Cc2ccc(-c3ccccc3-c3noc(=O)[nH]3)cc2)c(=O)n([C@H]2CC[C@H](OC(C)C(C)(C)O)CC2)c2ncnn12` (stereo partly drawn) [Example 206, 7-butyl-4-[trans-4-(2-hydroxy-1,2-dimethylpropoxy)cyclohexyl]-6-{[2′-(5-oxo-4,5-dihydro-1,2,4-oxadiazol-3-yl)biphenyl-4-yl]methyl}[1,2,4]triazolo[1,5-a]pyrimidin-5(4H)-one], in that order: 2.2 nM and 23%.
For `CCCc1c(Cc2ccc(-c3ccccc3-c3noc(=O)[nH]3)cc2)c(=O)n([C@H]2CC[C@H](OCC#N)CC2)c2ncnn12` [Example 210, ({trans-4-[5-oxo-6-{[2′-(5-oxo-4,5-dihydro-1,2,4-oxadiazol-3-yl)biphenyl-4-yl]methyl}-7-propyl[1,2,4]triazolo[1,5-a]pyrimidin-4(5H)-yl]cyclohexyl}oxy)acetonitrile], in that order: 1.9 nM and 33%.
Regarding `CCCc1c(Cc2ccc(-c3ccccc3-c3noc(=O)[nH]3)cc2)c(=O)n([C@H]2CC[C@H](OCC(C)=O)CC2)c2ncnn12` [Example 215, 6-{[2′-(5-oxo-4,5-dihydro-1,2,4-oxadiazol-3-yl)biphenyl-4-yl]methyl}-4-[trans-4-(2-oxopropoxy)cyclohexyl]-7-propyl[1,2,4]triazolo[1,5-a]pyrimidin-5(4H)-one], the IC50 in experiment [1] was 1.9 nM. This compound yielded an activation at 1 µM in experiment [2] of 24%.
For the compound `CCCc1c(Cc2ccc(-c3ccccc3-c3noc(=O)[nH]3)cc2)c(=O)n([C@H]2CC[C@H](OC/C(C)=N/OC)CC2)c2ncnn12` [Example 216, 4-(trans-4-{[(2E)-2-(methoxyimino)propyl]oxy}cyclohexyl)-6-{[2′-(5-oxo-4,5-dihydro-1,2,4-oxadiazol-3-yl)biphenyl-4-yl]methyl}-7-propyl[1,2,4]triazolo[1,5-a]pyrimidin-5(4H)-one], the IC50 in experiment [1] worked out at 1.6 nM. Further, the activation at 1 µM in experiment [2] worked out at 23%.
`CCCc1c(Cc2ccc(-c3ccccc3-c3noc(=O)[nH]3)cc2)c(=O)n([C@H]2CC[C@H](OCC(O)(CC)CC)CC2)c2ncnn12` [Example 225, 4-[trans-4-(2-ethyl-2-hydroxybutoxy)cyclohexyl]-6-{[2′-(5-oxo-4,5-dihydro-1,2,4-oxadiazol-3-yl)biphenyl-4-yl]methyl}-7-propyl[1,2,4]triazolo[1,5-a]pyrimidin-5(4H)-one] returned a concentration for half-maximal inhibition (IC50) in experiment [1] of 2.3 nM. In addition, in experiment [2], the activation at 1 µM stood at 21%.
In turn, `CCCc1c(Cc2ccc(-c3ccccc3-c3noc(=O)[nH]3)cc2)c(=O)n([C@H]2CC[C@H](OCC3(C#N)CCC3)CC2)c2ncnn12` [Example 227, 1-[({trans-4-[5-oxo-6-{[2′-(5-oxo-4,5-dihydro-1,2,4-oxadiazol-3-yl)biphenyl-4-yl]methyl}-7-propyl[1,2,4]triazolo[1,5-a]pyrimidin-4(5H)-yl]cyclohexyl}oxy)methyl]cyclobutanecarbonitrile] displayed an IC50 in experiment [1] of 2.5 nM. In experiment [2], this compound returned an activation at 1 µM of 23%.
As to `CCCc1c(Cc2ccc(-c3ccccc3-c3noc(=O)[nH]3)cc2)c(=O)n([C@H]2CC[C@H](OCC3(CO)CCC3)CC2)c2ncnn12` [Example 228, 4-(trans-4-{[1-(hydroxymethyl)cyclobutyl]methoxy}cyclohexyl)-6-{[2′-(5-oxo-4,5-dihydro-1,2,4-oxadiazol-3-yl)biphenyl-4-yl]methyl}-7-propyl[1,2,4]triazolo[1,5-a]pyrimidin-5(4H)-one], the IC50 in experiment [1] turned out to be 1.5 nM. Moreover, the activation at 1 µM in experiment [2] is 27%.
